Laboratory results published in US20030129222A1, “Liposomal imexon” (priority 2000, published 2003).
Where two headings read alike, the source gives them in different places.

Legend:
[1] = cited from earlier work
[2] = cited from earlier work; remark: listed apart in the source
WiDr colon, res = assay: Cytotoxicity in tumor cell culture, SRB assay; type: cell-based; conditions: multidrug-resistant, read-out: IC50 against human mouse tumors, WiDr colon res
Source text: (§1) Relative potencies of the N-substituted 2-cyanoaziridine-1-carboxamides in a panel of tumor cell cultures are compared in Table 3. This panel includes the following lines of human tumor cells: sensitive and imexon-resistant lines of multiple myeloma (Matsuoka et al., 1967); ovarian carcinoma resistant to standard drugs (Hamilton et al., 1984); melanoma with a slow growth fraction (Girard et al., 1973); breast carcinoma including sensitive, doxorubicin-resistant (P-glycoprotein-positive) (Taylor et al., 1991), and mitoxantrone-resistant (P-glycoprotein-negative) (Futscher et al., 1994) lines; sensitive and multidrug-resistant colon carcinoma (Noguchi et al., 1979; Dalton et al., 1988); and multidrug-resistant lung carcinoma (P-glycoprotein-negative) (Girard et al., 1973). It also has sensitive (Goldin et al., 1961) and multidrug-resistant (P-glycoprotein-positive) (Salmon and Hersh, 1994) murine L1210 leukemia cells.

[3] = system: 8226 myeloma, Res (imexon-resistant); assay: Cytotoxicity in tumor cell culture, SRB assay; type: cell-based; conditions: line made resistant to imexon, read-out: IC50 against human mouse tumors, 8226 myeloma Res
Source text: as §1

WiDr colon, Sens = assay: Cytotoxicity in tumor cell culture, SRB assay; type: cell-based; conditions: read-out: IC50 against human mouse tumors, WiDr colon Sens
Source text: as §1

[4] = substituent constant, from Hansch and Leo or calculated using Clog P software; cited from earlier work
OVCAR3 ovarian = assay: Cytotoxicity in tumor cell culture, SRB assay; type: cell-based, human; conditions: read-out: IC50 against human mouse tumors, OVCAR3 ovarian
Source text: as §1

[5] = system: 8226 myeloma, Sens (drug-sensitive); assay: Cytotoxicity in tumor cell culture, SRB assay; type: cell-based, human
Source text: as §1

[6] = system: MCF7 breast, mitox (mitoxantrone-resistant); assay: Cytotoxicity in tumor cell culture, SRB assay; type: cell-based, human; conditions: mitoxantrone-resistant, read-out: IC50 against human mouse tumors, MCF7 breast mitox
Source text: as §1

MCF7 breast, Sens = assay: Cytotoxicity in tumor cell culture, SRB assay; type: cell-based, human; conditions: read-out: IC50 against human mouse tumors, MCF7 breast Sens
Source text: as §1

A-549 lung = assay: Cytotoxicity in tumor cell culture, SRB assay; type: cell-based, human; conditions: read-out: IC50 against human mouse tumors, A-549 lung
Source text: as §1

[7] = system: MCF7 breast, Dox (doxorubicin-resistant); assay: Cytotoxicity in tumor cell culture, SRB assay; type: cell-based, human; conditions: doxorubicin-resistant, read-out: IC50 against human mouse tumors, MCF7 breast Dox
Source text: as §1

A375 melan = assay: Cytotoxicity in tumor cell culture, SRB assay; type: cell-based, human; conditions: read-out: IC50 against human mouse tumors, A375 melan
Source text: as §1

L1210 leukemia, Mdr = assay: Cytotoxicity in tumor cell culture, MTT assay; type: cell-based, murine; conditions: MTT assay, multidrug-resistant, read-out: IC50 against human mouse tumors, L1210 leukemia Mdr
Source text: as §1

L1210 leukemia, Sens = assay: Cytotoxicity in tumor cell culture, MTT assay; type: cell-based, murine; conditions: MTT assay, read-out: IC50 against human mouse tumors, L1210 leukemia Sens
Source text: as §1

Structure (SMILES): N[C@@H](Cc1ccc(N(CCCl)CCCl)cc1)C(=O)O [Melphalan, 4-[bis(2-chloroethyl)amino]-L-phenylalanine]
- patients showing a favorable response ([1]; multiple myeloma, oral administration): one third to one half

Structure (SMILES): CS(=O)(=O)OCCCCOS(C)(=O)=O [Busulfan, 1,4-butanediol dimethanesulfonate]
- adults obtaining hematologic remission ([1]; previously untreated chronic myelogenous leukemia): Approximately 90%

Structure (SMILES): CO[C@@]12[C@H](COC(N)=O)C3=C(C(=O)C(C)=C(N)C3=O)N1C[C@@H]1N[C@@H]12 [Mitomycin]
- maximal serum concentration ([2]; 10 mg I.V.): 0.52 mg/mL
- maximal serum concentration ([2]; 20 mg I.V.): 1.7 mg/mL
- maximal serum concentration ([2]; 30 mg I.V.): 2.4 mg/mL
- time required to reduce the serum concentration by about 50% ([2]; 30 mg bolus injection): 17 min
- dose excreted unchanged in the urine ([2]; in vivo): Approximately 10%

Structure (SMILES): CNC(=O)N1CC1C#N (centres unmarked) [Compound 6, 2-Cyanoaziridine-1-(N-methyl) carboxainide]
- IC50 (WiDr colon, res; Homo sapiens, WiDr): 23 µM
- IC50 ([3]; Homo sapiens): 26 µM
- IC50 (WiDr colon, Sens; Homo sapiens, WiDr): 21 µM
- π [4]: 0.50
- melting point: 98 to 100 °C
- IC50 (OVCAR3 ovarian; Homo sapiens, OVCAR-3): 14 µM
- IC50 ([5]; Homo sapiens, against sensitive myeloma, read-out: Log(1/C) (converted)): 25.7 µM
- IC50 ([5]; Homo sapiens, against sensitive myeloma, values repeated from Table 3 (μM there), read-out: IC50): 26 µM
- IC50 ([5]; Homo sapiens, drug-sensitive line, read-out: IC50 against human mouse tumors, 8226 myeloma Sens): 26 µM
- IC50 ([6]; Homo sapiens, MCF7): 18 µM
- IC50 (MCF7 breast, Sens; Homo sapiens, MCF7): 27 µM
- IC50 (A-549 lung; Homo sapiens, A549): 22 µM
- IC50 ([7]; Homo sapiens, MCF7): 17 µM
- IC50 (A375 melan; Homo sapiens, A-375): 17 µM
- IC50 (L1210 leukemia, Mdr; Mus musculus, L1210): 21 µM
- IC50 (L1210 leukemia, Sens; Mus musculus, L1210): 8.7 µM

Structure (SMILES): N#CC1CN1C(=O)NC1CCCCC1 (centres unmarked) [Compound 10, 2-Cyanoaziridine-1-(N-cyclohexyl) carboxamide]
- IC50 (WiDr colon, res): 12 µM
- IC50 [3]: 98 µM
- IC50 (WiDr colon, Sens): 2.4 µM
- π [4]: 2.51
- IC50 (OVCAR3 ovarian): 31 µM
- Log(1/C) ([5]; against sensitive myeloma): 4.44
- IC50 ([5]; against sensitive myeloma, values repeated from Table 3 (μM there), read-out: IC50): 36 µM
- IC50 ([5]; drug-sensitive line, read-out: IC50 against human mouse tumors, 8226 myeloma Sens): 36 µM
- IC50 [6]: 9.8 µM
- IC50 (MCF7 breast, Sens): 13 µM
- IC50 (A-549 lung): 10 µM
- IC50 [7]: 8.9 µM
- IC50 (A375 melan): 35 µM
- IC50 (L1210 leukemia, Mdr): 16 µM
- IC50 (L1210 leukemia, Sens): 7.4 µM
